pIC50: −log10 of the molar value.
Each compound was assayed against JAK1 (Homo sapiens (Human), UniProt P23458) (assay: Analysis of JAK1 activity inhibition ability (ADP-Glo Kinase Assay)). Details: JAK1 enzyme, ADP-Glo luminescence, ATP 250 uM, IRS-itide substrate, 30° C. 40 minutes; read-out: IC50.
Format: biochemical
Method in brief: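 JAK1 enzyme, IRS-itide substrate (40 ng/mL) and 250 uM ATP, both as prepared in kinase buffer (Tris-HCl pH 7.5, MgCl2, BSA, DTT), reacted with compound 40 min at 30 °C. ADP formed was detected by ADP-Glo luminescence; IC50 is the concentration giving 50% inhibition versus control.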

Chain of JAK1 (P23458 whole entry): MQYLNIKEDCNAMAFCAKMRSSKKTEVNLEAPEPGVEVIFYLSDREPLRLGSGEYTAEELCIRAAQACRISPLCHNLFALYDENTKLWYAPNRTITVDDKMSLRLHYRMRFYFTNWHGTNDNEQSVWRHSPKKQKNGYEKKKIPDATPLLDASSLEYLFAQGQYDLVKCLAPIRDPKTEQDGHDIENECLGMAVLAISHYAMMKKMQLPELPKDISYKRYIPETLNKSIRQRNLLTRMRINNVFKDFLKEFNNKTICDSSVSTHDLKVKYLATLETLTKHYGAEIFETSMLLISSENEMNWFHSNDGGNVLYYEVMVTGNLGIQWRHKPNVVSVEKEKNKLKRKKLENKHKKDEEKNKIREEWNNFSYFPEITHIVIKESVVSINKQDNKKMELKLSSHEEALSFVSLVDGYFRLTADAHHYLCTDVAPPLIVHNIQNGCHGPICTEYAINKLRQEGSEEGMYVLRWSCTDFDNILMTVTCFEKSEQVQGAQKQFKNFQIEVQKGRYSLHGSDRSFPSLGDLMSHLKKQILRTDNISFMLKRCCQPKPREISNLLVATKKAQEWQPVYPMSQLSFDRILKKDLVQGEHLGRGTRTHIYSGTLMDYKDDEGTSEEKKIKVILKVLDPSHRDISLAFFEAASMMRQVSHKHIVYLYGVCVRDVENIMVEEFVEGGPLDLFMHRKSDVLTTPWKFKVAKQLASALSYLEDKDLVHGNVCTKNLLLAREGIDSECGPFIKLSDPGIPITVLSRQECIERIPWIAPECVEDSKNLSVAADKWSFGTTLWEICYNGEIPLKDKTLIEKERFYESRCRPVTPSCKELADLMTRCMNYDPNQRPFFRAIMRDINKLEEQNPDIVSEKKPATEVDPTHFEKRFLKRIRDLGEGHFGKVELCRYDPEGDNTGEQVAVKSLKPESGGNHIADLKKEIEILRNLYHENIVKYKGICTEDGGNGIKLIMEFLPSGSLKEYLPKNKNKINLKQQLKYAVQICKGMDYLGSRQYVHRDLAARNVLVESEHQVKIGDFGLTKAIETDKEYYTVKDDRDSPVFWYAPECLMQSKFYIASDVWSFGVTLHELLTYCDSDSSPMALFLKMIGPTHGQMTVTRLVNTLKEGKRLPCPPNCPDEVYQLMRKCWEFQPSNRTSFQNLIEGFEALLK

| Compound | pIC50 |
| --- | --- |
| Cc1nnnn1Cc1ccc(-c2cc(NC(=O)C3CC3)nc3[nH]cnc23)cc1 [Example 594, N-(7-(4-((5-methyl-1H-tetrazol-1-yl)methyl)phenyl)-3H-imidazo[4,5-b]pyridin-5-yl)cyclopropanecarboxamide] | < 6.70 |
| O=C(Nc1cc(C2=CCN(C(=O)CC(F)(F)F)C2)c2cc[nH]c2n1)C1CC1 [Example 428, N-(4-(1-(3,3,3-trifluoropropanoyl)-2,5-dihydro-1H-pyrrol-3-yl)-1H-pyrrolo[2,3-b]pyridin-6-yl)cyclopropanecarboxamide] | < 6.70 |
| O=C(Nc1cc(-c2ccc(NCC3CCCCC3)cc2)c2cc[nH]c2n1)C1CC1 [Example 471, N-(4-(4-((cyclohexylmethyl)amino)phenyl)-1H-pyrrolo[2,3-b]pyridin-6-yl)cyclopropanecarboxamide] | < 6.70 |
| CCS(=O)(=O)N1C2CCC1CC(c1cc(NC(=O)C3CC3)nc3[nH]ccc13)C2 (centres unmarked) [Example 646, N-(4-(8-(ethylsulfonyl)-8-azabicyclo[3.2.1]octan-3-yl)-1H-pyrrolo[2,3-b]pyridin-6-yl)cyclopropanecarboxamide] | < 6.70 |
| O=C(Nc1cc(-c2ccc(NCC3CC3)cc2)c2cc[nH]c2n1)C1CC1 [Example 470, N-(4-(4-((cyclopropylmethyl)amino)phenyl)-1H-pyrrolo[2,3-b]pyridin-6-yl)cyclopropanecarboxamide] | 6.70 to 7.70 |
| CC(C)(C)OC(=O)N1CCN(C(=O)Cc2ccc(-c3cc(NC(=O)C4CC4)nc4[nH]ccc34)cc2)CC1 [Example 554, tert-butyl 4-(2-(4-(6-(cyclopropanecarboxamido)-1H-pyrrolo[2,3-b]pyridin-4-yl)phenyl)acetyl)piperazine-1-carboxylate] | 6.70 to 7.70 |
| CC(Br)CC(=O)N1CC=C(c2cc(NC(=O)C3CC3)nc3[nH]ccc23)C(C)C1 (centres unmarked) [Example 338, N-(4-(1-(3-bromobutanoyl)-3-methyl-1,2,3,6-tetrahydropyridin-4-yl)-1H-pyrrolo[2,3-b]pyridin-6-yl)cyclopropanecarboxamide] | 6.70 to 7.70 |
| O=C(Nc1cc(C2=CCN(S(=O)(=O)NCC(F)(F)F)CC2)c2cc[nH]c2n1)C1CC1 [Example 232, N-(4-(1-(N-(2,2,2-trifluoroethyl)sulfamoyl)-1,2,3,6-tetrahydropyridin-4-yl)-1H-pyrrolo[2,3-b]pyridin-6-yl)cyclopropanecarboxamide] | 6.70 to 7.70 |
| O=C(Nc1cc(-c2ccc(OS(=O)(=O)CC3CCOC3)cc2)c2cc[nH]c2n1)C1CC1 (centres unmarked) [Example 638, 4-(6-(cyclopropanecarboxamido)-1H-pyrrolo[2,3-b]pyridin-4-yl)phenyl (tetrahydrofuran-3-yl)methanesulfonate] | 6.70 to 7.70 |
| C[C@H]1CC(Nc2ccc(-c3cc(NC(=O)C4CC4)nc4[nH]ccc34)cc2)CCN1C(=O)c1cc(F)cc(F)c1 (stereo partly drawn) [Example 502, N-(4-(4-(((2S)-1-(3,5-difluorobenzoyl)-2-methylpiperidin-4-yl)amino)phenyl)-1H-pyrrolo[2,3-b]pyridin-6-yl)cyclopropanecarboxamide] | < 6.70 |
| O=C(Nc1cc(N2CCN(C(=O)NCC(F)(F)F)CC2)c2cc[nH]c2n1)C1CC1 [Example 690, 4-(6-(cyclopropanecarboxamido)-1H-pyrrolo[2,3-b]pyridin-4-yl)-N-(2,2,2-trifluoroethyl)piperazine-1-carboxamide] | < 6.70 |
| Cc1cc(C(=O)N(C)CC#N)ccc1-c1cc(NC(=O)C2CC2)nc2[nH]ccc12 [Example 527, N-(cyanomethyl)-4-(6-(cyclopropanecarboxamido)-1H-pyrrolo[2,3-b]pyridin-4-yl)-N,3-dimethylbenzamide] | < 6.70 |
| O=C(Nc1cc(-c2ccc(OS(=O)(=O)C3CCCCC3)cc2)c2cc[nH]c2n1)C1CC1 [Example 634, 4-(6-(cyclopropanecarboxamido)-1H-pyrrolo[2,3-b]pyridin-4-yl)phenyl cyclohexanesulfonate] | < 6.70 |
| CCc1cc(-c2cc(NC(=O)C3CC3)nc3[nH]ccc23)cc(CC)c1NS(=O)(=O)CC1(C#N)CC1 [Example 138, N-(4-(4-(((1-cyanocyclopropyl)methyl)sulfonamido)-3,5-diethylphenyl)-1H-pyrrolo[2,3-b]pyridin-6-yl)cyclopropanecarboxamide] | < 6.70 |
| COc1ccc(C(=O)N2CC=C(c3cc(NC(=O)C4CC4)nc4[nH]ccc34)C(C)C2)c(OC)c1 (centres unmarked) [Example 356, N-(4-(1-(2,4-dimethoxybenzoyl)-3-methyl-1,2,3,6-tetrahydropyridin-4-yl)-1H-pyrrolo[2,3-b]pyridin-6-yl)cyclopropanecarboxamide] | < 6.70 |
| CCC1CN(C(=O)OC(C)(C)C)CC=C1c1cc(NC(=O)C2CC2)nc2[nH]ccc12 (centres unmarked) [Example 458, tert-butyl 4-(6-(cyclopropanecarboxamido)-1H-pyrrolo[2,3-b]pyridin-4-yl)-3-ethyl-3,6-dihydropyridine-1 (2H)-carboxylate] | < 6.70 |
| CS(=O)(=O)N1CCC(n2cc(-c3cc(NC(=O)C4CC4)nc4[nH]ccc34)cn2)CC1 [Example 607, N-(4-(1-(1-(methylsulfonyl)piperidin-4-yl)-1H-pyrazol-4-yl)-1H-pyrrolo[2,3-b]pyridin-6-yl)cyclopropanecarboxamide] | 6.70 to 7.70 |

Next, values leading:

| pIC50 | Compound |
| --- | --- |
| > 7.70 | C[C@@H]1CC(c2cc(NC(=O)C3CC3)nc3[nH]ccc23)=CCN1C(=O)CC#N [Example 389, (R)—N-(4-(1-(2-cyanoacetyl)-2-methyl-1,2,3,6-tetrahydropyridin-4-yl)-1H-pyrrolo[2,3-b]pyridin-6-yl)cyclopropanecarboxamide] |
| 6.70 to 7.70 | C[C@H]1CC(c2cc(NC(=O)C3CC3)nc3[nH]ccc23)=CCN1C(=O)CC#N [Example 391, (S)—N-(4-(1-(2-cyanoacetyl)-2-methyl-1,2,3,6-tetrahydropyridin-4-yl)-1H-pyrrolo[2,3-b]pyridin-6-yl)cyclopropanecarboxamide] |
| 6.70 to 7.70 | CC1CN(C(=O)C2(C#N)CCCC2)CC=C1c1cc(NC(=O)C2CC2)nc2[nH]ccc12 (centres unmarked) [Example 361, N-(4-(1-(1-cyanocyclopentane-1-carbonyl)-3-methyl-1,2,3,6-tetrahydropyridin-4-yl)-1H-pyrrolo[2,3-b]pyridin-6-yl)cyclopropanecarboxamide] |
| > 7.70 | O=C(Nc1nc(-c2ccc(NS(=O)(=O)c3ccc(F)cc3)cc2)c2cc[nH]c2n1)C1CC1 [Example 188, N-(4-(4-((4-fluorophenyl)sulfonamido)phenyl)-7H-pyrrolo[2,3-d]pyrimidin-2-yl)cyclopropanecarboxamide] |
| 6.70 to 7.70 | O=C(Nc1cc(-c2ccc(NS(=O)(=O)C3CCC3)cc2C(F)(F)F)c2cc[nH]c2n1)C1CC1 [Example 120, N-(4-(4-(cyclobutanesulfonamido)-2-(trifluoromethyl)phenyl)-1H-pyrrolo[2,3-b]pyridin-6-yl)cyclopropanecarboxamide] |
| 6.70 to 7.70 | N#CC1(CC(=O)N2CCN(c3cc(NC(=O)C4CC4)nc4[nH]ccc34)CC2)CC1 [Example 683, N-(4-(4-(2-(1-cyanocyclopropyl)acetyl)piperazin-1-yl)-1H-pyrrolo[2,3-b]pyridin-6-yl)cyclopropanecarboxamide] |
| 6.70 to 7.70 | CCOC(=O)N1CCN(C(=O)Cc2ccc(-c3cc(NC(=O)C4CC4)nc4[nH]ccc34)cc2)CC1 [Example 565, ethyl 4-(2-(4-(6-(cyclopropanecarboxamido)-1H-pyrrolo[2,3-b]pyridin-4-yl)phenyl)acetyl)piperazine-1-carboxylate] |
| 6.70 to 7.70 | O=C(Nc1cc(C2=CCN(C(=O)c3ccc(F)cc3)CC2)c2cc[nH]c2n1)C1CC1 [Example 279, N-(4-(1-(4-fluorobenzoyl)-1,2,3,6-tetrahydropyridin-4-yl)-1H-pyrrolo[2,3-b]pyridin-6-yl)cyclopropanecarboxamide] |
| 6.70 to 7.70 | CCS(=O)(=O)Nc1ccc(-c2cc(NC(=O)C3CC3)nc3[nH]ccc23)c(C)c1C [Example 131, N-(4-(4-(ethylsulfonamido)-2,3-dimethylphenyl)-1H-pyrrolo[2,3-b]pyridin-6-yl)cyclopropanecarboxamide] |
| > 7.70 | O=C(Nc1cc(-c2ccc(NS(=O)(=O)c3ccc(Cl)nc3)cc2)c2cc[nH]c2n1)C1CC1 [Example 12, N-(4-(4-((6-chloropyridine)-3-sulfonamido)phenyl)-1H-pyrrolo[2,3-b]pyridin-6-yl)cyclopropanecarboxamide] |
| > 7.70 | O=C(Nc1cc(C2=CCN(C(=O)NCC(F)(F)F)CC2)c2cc[nH]c2n1)C1CC1 [Example 443, 4-(6-(cyclopropanecarboxamido)-1H-pyrrolo[2,3-b]pyridin-4-yl)-N-(2,2,2-trifluoroethyl)-3,6-dihydropyridine-1 (2H)-carboxamide] |
| > 7.70 | CCC1CN(C(=O)CCC#N)CC=C1c1cc(NC(=O)C2CC2)nc2[nH]ccc12 (centres unmarked) [Example 295, N-(4-(1-(3-cyanopropanoyl)-3-ethyl-1,2,3,6-tetrahydropyridin-4-yl)-1H-pyrrolo[2,3-b]pyridin-6-yl)cyclopropanecarboxamide] |
| > 7.70 | O=C(Nc1cc(-c2ccc(NS(=O)(=O)c3ccc(Cl)cc3)cc2)c2cc[nH]c2n1)C1CC1 [Example 14, N-(4-(4-((4-chlorophenyl)sulfonamido)phenyl)-1H-pyrrolo[2,3-b]pyridin-6-yl)cyclopropanecarboxamide] |
| > 7.70 | O=C(NCC(F)(F)F)NC1CC=C(c2cc(NC(=O)C3CC3)nc3[nH]ccc23)CC1 (centres unmarked) [Example 442, N-(4-(4-(3-(2,2,2-trifluoroethyl)ureido)cyclohex-1-en-1-yl)-1H-pyrrolo[2,3-b]pyridin-6-yl)cyclopropanecarboxamide] |
| > 7.70 | CC(C#N)C(=O)N1CC=C(c2cc(NC(=O)C3CC3)nc3[nH]ccc23)CC1 (centres unmarked) [Example 269, N-(4-(1-(2-cyanopropanoyl)-1,2,3,6-tetrahydropyridin-4-yl)-1H-pyrrolo[2,3-b]pyridin-6-yl)cyclopropanecarboxamide] |

From patent publication US11524968B2, “Heterocyclic compound as a protein kinase inhibitor” (HK inno.N Corporation, priority 2017, dated 2022)
